Laboratory results as given in US6857485B2, “Shale hydration inhibition agent and method of use” (M-I LLC, priority 2000, dated 2005).

Assays:
[1] = Viscosity of product from neutralization of Jeffamine D-230 with acids; assay type: physicochemical; settings: for Viscosity (centipoises) at pH 9.5: Jeffamine D-230 neutralized with the acid to pH 9.5; for Viscosity (centipoises) at pH 10.5: Jeffamine D-230 neutralized with the acid to pH 10.5
From the text: Synthesis of the salt: Synthesis of the salts from the free amine compounds is simple and should be well known and within the skill of a person of ordinary skill in the art. In one method the salt is formed in situ within a fully formulated mud by the addition of the acid directly to the mud. Alternatively the amine compound may be neutralized first with acid and then the salt added to the mud. When conducting the neutralization reaction between the amine compound and the acid compound either concentrated or diluted acid may be used. When concentrated acid is utilized, typically a slurry of the salt is formed. When the acid is diluted in water, an aqueous solution containing the amine salt is formed.

[2] = Hot-Rolling Dispersion in fresh water, Oxford shale; settings: 350 ml freshwater with 10.5 g shale inhibitor, hot rolled 16 hours at 150° F.
Description: (§1) Synthesis of the amine salt was carried out as previously disclosed above. Fresh water was utilized as the base fluid in this example.
(§2) A hot-rolling dispersion test was conducted using samples of Oxford shale, Foss Eikeland shale and actual shale drilling cutting recovered from a well in the field. […] The resulting mixture was hot rolled for 16 hours at 150° F. After rolling, the remaining shale cuttings were screened from the base fluid using a US 20 mesh screen and washed clean of base fluid with 10% potassium chloride aqueous solution. After drying the samples, they were weighed and the percentage of recovered shale was calculated.

[3] = Hot-Rolling Dispersion in fresh water, field cuttings; settings: 350 ml freshwater with 10.5 g shale inhibitor, hot rolled 16 hours at 150° F.
Description: as §1, §2

[4] = Hot-Rolling Dispersion in fresh water, Foss Eikeland shale; settings: 350 ml freshwater with 10.5 g shale inhibitor, hot rolled 16 hours at 150° F.
Description: as §1, §2

[5] = Bentonite Hydration Study, 50 ppb bentonite (Example 6)
Description: In this procedure a pint jar was filled with one barrel equivalent of tap water and test sample, adjusted the pH to at least 9 and treated with a 50 ppb portion M-I GEL (bentonite) at a medium shear rate. After stirring for 30 minutes, the rheologies were measured and then the samples were heat aged overnight at 150° F. After the samples were cooled their rheologies and pHs were recorded. The following data is representative of how the rheologies are affected by the addition of the 50 ppb of bentonite in tap water treated with the experimental inhibitors.

[6] = Bentonite inhibition by daily addition of bentonite (Example 7); settings: for 300 rpm Rheologies / 600 rpm Rheologies / 3 rpm Rheologies / 10 Min Gels / Plastic Viscosity / Yield Point: 10 ppb inhibitor; for 300 rpm Rheologies / 600 rpm Rheologies: Heat Aged (150° F.); for 3 rpm Rheologies / 10 Min Gels / Plastic Viscosity / Yield Point: Heat Aged (150°)
Description: This test procedure uses pint jars that are filled with one barrel equivalent of tap water and 10 ppb of a shale inhibitor. Tap water was used as a control sample. All samples were adjusted to at least a pH of 9 and treated with a 10 ppb portion of M-I GEL (bentonite) at a medium shear rate. After stirring for 30 minutes, the rheologies were measured and then the samples were heat aged overnight at 150° F. After the samples were cooled their rheologies and pHs were recorded. All samples were then adjusted to at least a pH 9 before treating them again with bentonite as previously described. This procedure was carried out for each sample until all were too thick to measure.

For CC(=O)O [Acetic acid], the “Viscosity (centipoises) at pH 9.5” value [1] was 1425 cps, the “Viscosity (centipoises) at pH 10.5” value [1] was 33 cps and the “% recovered” value [2] was 88.0%. The “% recovered” value [3] was 47.6% and the “% recovered” value [4] was 72.4%.
In the case of COCCOC(C)COC(C)COC(C)COC(C)COC(C)COC(C)COC(C)COC(C)COCC(C)N (stereo not shown) [Jeffamine M-600], the “shale hydration inhibition, judgement” value [5] is reported as “performed well as shale hydration inhibitors”, the “Gels 10 sec.” value ([5]; Heat Aged Rheology (150° F.)) is reported as 1 lbs/100 ft^2 and the “Gels 10 min.” value ([5]; Heat Aged Rheology (150° F.)) is reported as 1 lbs/100 ft^2. The PV ([5]; Heat Aged Rheology (150° F.)) was 16 CPS, the “Rheology 3 RPM” value ([5]; Heat Aged Rheology (150° F.)) was 1 and the “Rheology 6 RPM” value ([5]; Heat Aged Rheology (150° F.)) was 1. The “Rheology 100 RPM” value ([5]; Heat Aged Rheology (150° F.)) was 10, the “Rheology 200 RPM” value ([5]; Heat Aged Rheology (150° F.)) was 17 and the “Rheology 300 RPM” value ([5]; Heat Aged Rheology (150° F.)) was 24. For the same compound, the “Rheology 600 RPM” value ([5]; Heat Aged Rheology (150° F.)) was 40, the YP ([5]; Heat Aged Rheology (150° F.)) was 8 lbs/100 ft^2 and the pH ([5]; Heat Aged Rheology (150° F.)) was 11.1. For the same compound, the “Gels 10 sec.” value ([5]; Initial Rheology) was 11 lbs/100 ft^2, the “Gels 10 min.” value ([5]; Initial Rheology) was 25 lbs/100 ft^2 and the PV ([5]; Initial Rheology) was 19 CPS. For the same compound, the “Rheology 3 RPM” value ([5]; Initial Rheology) was 4, the “Rheology 6 RPM” value ([5]; Initial Rheology) was 5 and the “Rheology 100 RPM” value ([5]; Initial Rheology) was 17. For the same compound, the “Rheology 200 RPM” value ([5]; Initial Rheology) was 25, the “Rheology 300 RPM” value ([5]; Initial Rheology) was 33 and the “Rheology 600 RPM” value ([5]; Initial Rheology) was 52. The YP ([5]; Initial Rheology) was 14 lbs/100 ft^2, the pH ([5]; Initial Rheology) was 11.1 and the “300 rpm Rheologies” value ([6]; Bentonite 30 lb/bbl) was 9. The “600 rpm Rheologies” value ([6]; Bentonite 30 lb/bbl) was 18, the “3 rpm Rheologies” value ([6]; Bentonite 30 lb/bbl) was 0 and the “10 Min Gels” value ([6]; Bentonite 30 lb/bbl) was 0 lbs/100 ft^2. For the same compound, the “Plastic Viscosity” value ([6]; Bentonite 30 lb/bbl) was 9 CPS, the “Yield Point” value ([6]; Bentonite 30 lb/bbl) was 1 lbs/100 ft^2 and the “300 rpm Rheologies” value ([6]; Bentonite 40 lb/bbl) was 18. The “600 rpm Rheologies” value ([6]; Bentonite 40 lb/bbl) was 35, the “3 rpm Rheologies” value ([6]; Bentonite 40 lb/bbl) was 0 and the “10 Min Gels” value ([6]; Bentonite 40 lb/bbl) was 0 lbs/100 ft^2. For the same compound, the “Plastic Viscosity” value ([6]; Bentonite 40 lb/bbl) was 16 CPS, the “Yield Point” value ([6]; Bentonite 40 lb/bbl) was 1 lbs/100 ft^2 and the “300 rpm Rheologies” value ([6]; Bentonite 50 lb/bbl) was 41. The “600 rpm Rheologies” value ([6]; Bentonite 50 lb/bbl) was 74, the “3 rpm Rheologies” value ([6]; Bentonite 50 lb/bbl) was 0 and the “10 Min Gels” value ([6]; Bentonite 50 lb/bbl) was 0 lbs/100 ft^2. For the same compound, the “Plastic Viscosity” value ([6]; Bentonite 50 lb/bbl) was 33 CPS, the “Yield Point” value ([6]; Bentonite 50 lb/bbl) was 8 lbs/100 ft^2 and the “300 rpm Rheologies” value ([6]; Bentonite 60 lb/bbl) was 71. For the same compound, the “600 rpm Rheologies” value ([6]; Bentonite 60 lb/bbl) was 146, the “3 rpm Rheologies” value ([6]; Bentonite 60 lb/bbl) was 0 and the “10 Min Gels” value ([6]; Bentonite 60 lb/bbl) was 0 lbs/100 ft^2. For the same compound, the “Plastic Viscosity” value ([6]; Bentonite 60 lb/bbl) was 75 CPS, the “Yield Point” value ([6]; Bentonite 60 lb/bbl) was 4 lbs/100 ft^2 and the “300 rpm Rheologies” value ([6]; Bentonite 70 lb/bbl) was 121. The “600 rpm Rheologies” value ([6]; Bentonite 70 lb/bbl) was 259, the “3 rpm Rheologies” value ([6]; Bentonite 70 lb/bbl) was 0 and the “10 Min Gels” value ([6]; Bentonite 70 lb/bbl) was 3 lbs/100 ft^2. For the same compound, the “Plastic Viscosity” value ([6]; Bentonite 70 lb/bbl) was 138 CPS, the “Yield Point” value ([6]; Bentonite 70 lb/bbl) was 17 lbs/100 ft^2 and the “shale hydration inhibition, judgement” value ([6]; daily addition of bentonite) was “performs as a shale hydration inhibitor”.
With O=[N+]([O-])O [Nitric acid] the “Viscosity (centipoises) at pH 9.5” value [1] was 610 cps, the “Viscosity (centipoises) at pH 10.5” value [1] was 120 cps and the “% recovered” value [2] was 87.6%. For the same compound, the “% recovered” value [3] was 45.7% and the “% recovered” value [4] was 69.1%.
In the case of O=P(O)(O)O [Phosphoric acid], the “Viscosity (centipoises) at pH 9.5” value [1] is reported as “slurry”, the “Viscosity (centipoises) at pH 10.5” value [1] is reported as “slurry” and the “% recovered” value [2] is reported as 87.8%. The “% recovered” value [3] was 42.6% and the “% recovered” value [4] was 69.1%.
For Citric acid, the “Viscosity (centipoises) at pH 9.5” value [1] was 2000 cps, the “Viscosity (centipoises) at pH 10.5” value [1] was 180 cps and the “% recovered” value [2] was 87.0%. The “% recovered” value [4] was 78.0%.
